Experimental data reported in patent US7902199B2, “Heterocyclic substituted piperazine compounds with CXCR3 antagonist activity” (Schering Corporation, priority 2006, dated 2011).
pKi: −log10 of the molar value.

Biological target: T1, Human CXCR3 (N-delta 4) (Homo sapiens, UniProt P49682)
T1 construct: CD8 leader (N); Flag; expressed in transfected cells; membrane preparation
T1 sequence (P49682 5-368 limits assumed): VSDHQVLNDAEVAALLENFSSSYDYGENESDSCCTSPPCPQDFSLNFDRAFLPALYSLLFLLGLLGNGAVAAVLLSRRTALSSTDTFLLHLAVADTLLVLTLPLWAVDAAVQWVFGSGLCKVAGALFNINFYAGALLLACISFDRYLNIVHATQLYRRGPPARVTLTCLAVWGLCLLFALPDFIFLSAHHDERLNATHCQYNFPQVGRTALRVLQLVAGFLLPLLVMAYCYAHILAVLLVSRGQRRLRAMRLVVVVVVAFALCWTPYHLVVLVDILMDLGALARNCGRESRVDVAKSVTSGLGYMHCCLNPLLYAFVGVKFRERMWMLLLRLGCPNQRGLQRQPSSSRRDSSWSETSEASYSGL
Assay: Human CXCR3 (N-delta 4) Scintillation Proximity Assay (SPA), [125I] IP-10 binding
Details: rating; 25 pM [125I] IP-10, Ba/F3-hCXCR3 (N-delta 4) membranes, 3 hr room temperature
Excerpt: The inventive compounds can readily be evaluated to determine activity at The CXCR3 receptors by known methods, such as, for example, Development of Human CXCR3 (N-delta 4) Binding Assay.
Cloning and Expression of Human CXCR3 (N-delta 4):
The DNA encoding human CXCR3 was cloned by PCR using human genomic DNA (Promega, Madison, Wis.) as a template. The PCR primers were designed based on the published sequence of human orphan receptor GPR9 (1) with incorporated restriction sites, a Kozak consensus sequence, CD8 leader and Flag tag. The PCR product was subcloned into the mammalian expression vector pME18neo, a derivative of the SR-alpha expression vector (designated as pME18Sneo-hCXCR3 (N-delta 4).
IL-3-dependent mouse pro-B cells Ba/F3 were transfected by electroporation in 0.4 ml Dulbecco's PBS containing 4×10^6 cells with 20 μg of pME18Sneo-hCXCR3 (N-delta 4) plasmid DNA. Cells were pulsed at 400 Volts, 100 OHMs, 960 μFd. The transfected cells were under selection with 1 mg/ml G418 (Life Technologies, Gaithersburg, Md.). G418-resistant Ba/F3 clones were screened for CXCR3 expression by specific binding of [^125I] IP-10 (NEN Life Science Products, Boston, Mass.).
Preparation of Ba/F3-hCXCR3 (N-delta 4) Membranes
Ba/F3 cells expressing human CXCR3 (N-delta 4) were pelleted and resuspended in the lysis buffer containing 10 mM HEPES, pH 7.5 and Complete® protease inhibitors (1 tablet per 100 ml) (Boehringer Mannheim, Indianapolis, Ind.) at a cell density of 20×10^6 cells per ml. After 5 minutes incubation on ice, cells were transferred to 4639 cell disruption bomb (Parr Instrument, Moline, Ill.) and applied with 1,500 psi of nitrogen for 30 minutes on ice. Large cellular debris was removed by centrifugation at 1,000×g. Cell membrane in the supernatant was sedimented at 100,000×g. The membrane was resuspended in the lysis buffer supplemented with 10% sucrose and stored at −80° C. Total protein concentration of the membrane was determined by BCA method from Pierce (Rockford, Ill.).
Human CXCR3 (N-delta 4) Scintillation Proximity Assay (SPA)
For each assay point, 2 μg of membrane was preincubated for 1 hr with 300 μg wheat germ agglutinin (WGA) coated SPA beads (Amersham, Arlington Heights, Ill.) in the binding buffer (50 mM HEPES, 1 mM CaCl2, 5 mM MgCl2, 125 mM NaCl, 0.002% NaN3, 1.0% BSA) at room temperature. The beads were spun down, washed once, resuspended in the binding buffer and transferred to a 96-well Isoplate (Wallac, Gaithersburg, Md.). 25 pM of [^125I] IP-10 with tested compounds in a series of titration were added to start the reaction. After 3 hr reaction at room temperature, the amount of [^125I] IP-10 bound to the SPA beads was determined with a Wallac 1450 Microbeta counter.
The Ki values for the various example compounds of the present invention are given in the afore-mentioned Table 1. From these values, it would be apparent to the skilled artisan that the compounds of the invention have excellent utility CXCR3 antagonists.

Row | SMILES | pKi
1 | CC[C@H]1CN(c2ccc(C(=O)NC3CC3)nc2C)CCN1C1CCN(C(=O)c2ccc(Cl)c(F)c2)CC1 [Compound 5] | > 7.60
2 | CC[C@H]1CN(c2ccc(C(=O)NC3CC3)nc2C)CCN1C1CCN(Cc2ccc(OC(F)(F)F)cc2)CC1 [Compound 2] | > 7.60
3 | CC[C@H]1CN(c2ccc(C(N)=O)nc2C)CCN1C1CCN(Cc2ccc(Cl)cc2)CC1 [Compound 3] | > 7.60
4 | CC[C@H]1CN(c2ccc(C(=O)NC3CC3)nc2C)CCN1C1CCN(C(=O)c2ccc(Cl)cc2)CC1 [Compound 6] | > 7.60
5 | CCNC(=O)c1ccc(N2CCN(C3CCN(Cc4ccc(Cl)cc4)CC3)[C@@H](CC)C2)c(C)n1 [Compound 1] | > 7.60
6 | CC[C@H]1CN(c2ccc(C(N)=O)nc2C)CCN1C1CCN(Cc2ccc(OC(F)(F)F)cc2)CC1 [Compound 4] | > 7.60
7 | CC[C@H]1CN(c2ccc(C(=O)NC3CC3)nc2Cl)[C@H](C)CN1C1CCN(C(=O)c2ccc(Cl)cc2)CC1 [Compound 7] | > 7.60

Results, then the compound that gave them:

Row | pKi | SMILES
8 | > 7.60 | CC[C@H]1CN(c2ccc(C(=O)NC3CC3)nc2C)[C@H](C)CN1C1CCN(C(=O)c2ccc(Cl)c(F)c2)CC1 [Compound 9]
9 | < 7.00 | CC[C@H]1CN(c2ccc(CO)nc2C)CCN1C1CCN(C(=O)c2ccc(Cl)cc2)CC1 [Compound 13]
10 | 7.00 to 7.60 | CC[C@H]1CN(c2ccc(C(=O)NC3CC3)nc2C(F)(F)F)[C@H](C)CN1C1CCN(C(=O)c2ccc(Cl)cc2)CC1 [Compound 11]
11 | < 7.00 | CC[C@H]1CN(c2cnc(C#N)cc2C)CCN1C1CCN(C(=O)c2ccc(Cl)cc2)CC1 [Compound 12]
12 | < 7.00 | CC[C@H]1CN(c2cnc(C(N)=O)cc2C)CCN1C1CCN(C(=O)c2ccc(Cl)cc2)CC1 [Compound 14]
13 | > 7.60 | CC[C@H]1CN(c2ccc(C(N)=O)nc2C)CCN1C1CCN(C(=O)c2ccc(Cl)cc2)CC1 [Compound 10]
14 | > 7.60 | CC[C@H]1CN(c2ccc(C(=O)NC3CC3)nc2C)CCN1C1CCN(C(=O)c2ccc(F)c(F)c2)CC1 [Compound 8]
